Our source for the IC50 values is BindingDB's records for patent US12398118 (Beijing Tide Pharmaceutical, 2025).

Molecules are shown by their SMILES.

Assay [1] addresses Rho-associated protein kinase 1 (Homo sapiens, UniProt Q13464). Put plainly: Biological Assay.
Assay [2] has as its target Rho-associated protein kinase 2 (Homo sapiens, UniProt O75116). Description: Biological Assay. On the procedure: Before the assay, the following working solutions as needed were formulated with corresponding reagents according to the instruction of the kinase detection kit: 1×kinase buffer, 5×STK-S2 substrate working solution (1.5 μM) and 5×ATP working solution (1.5 μM), 5×ROCK2 kinase working solution, 4×Streptavidin-XL665 working solution, and 4×STK-Ab-Cryptate 2 detection solution. Then the assay was performed according to the following procedure.A solution of a compound at a concentration of 10000 nM was prepared with the 1×kinase buffer containing 2.5% DMSO. Gradient dilution of the solution of the compound was performed with the kinase buffer containing DMSO, so as to obtain solutions of a test compound at 9 different concentrations. In addition to wells of test compounds, a positive well (containing all the reagents except the compound) and a negative well (containing all the reagents except the test compound and kinase) were set. Except for the control wells (positive and negative wells), a solution of a test compound (4 μL) was added to each of the reaction wells, and a solution of 2.5% DMSO was added to the control wells. Then the substrate ([…], i.e., 2 μL 5×STK-S2 substrate working solution) was added to each of the reaction wells. The 5×ROCK2 kinase working solution (2 μL, containing 1.4 ng ROCK2 kinase) was added to each of the reaction wells except for the negative well, the volume of which was made up with the 1×kinase buffer (2 μL). The 5×ATP working solution (2 μL) was added to each of the reaction wells, and the mixtures were incubated at room temperature for 2 hours. After the kinase reaction was complete, the 4×Streptavidin-XL665 working solution was added to each of the reaction wells, the solutions were mixed, followed by immediate addition of the 4×STK-Ab-Cryptate 2 detection solution (5 μL), and the mixtures were incubated at room temperature for 1 hour.

Rho-associated protein kinase 2, sequence (O75116 whole entry): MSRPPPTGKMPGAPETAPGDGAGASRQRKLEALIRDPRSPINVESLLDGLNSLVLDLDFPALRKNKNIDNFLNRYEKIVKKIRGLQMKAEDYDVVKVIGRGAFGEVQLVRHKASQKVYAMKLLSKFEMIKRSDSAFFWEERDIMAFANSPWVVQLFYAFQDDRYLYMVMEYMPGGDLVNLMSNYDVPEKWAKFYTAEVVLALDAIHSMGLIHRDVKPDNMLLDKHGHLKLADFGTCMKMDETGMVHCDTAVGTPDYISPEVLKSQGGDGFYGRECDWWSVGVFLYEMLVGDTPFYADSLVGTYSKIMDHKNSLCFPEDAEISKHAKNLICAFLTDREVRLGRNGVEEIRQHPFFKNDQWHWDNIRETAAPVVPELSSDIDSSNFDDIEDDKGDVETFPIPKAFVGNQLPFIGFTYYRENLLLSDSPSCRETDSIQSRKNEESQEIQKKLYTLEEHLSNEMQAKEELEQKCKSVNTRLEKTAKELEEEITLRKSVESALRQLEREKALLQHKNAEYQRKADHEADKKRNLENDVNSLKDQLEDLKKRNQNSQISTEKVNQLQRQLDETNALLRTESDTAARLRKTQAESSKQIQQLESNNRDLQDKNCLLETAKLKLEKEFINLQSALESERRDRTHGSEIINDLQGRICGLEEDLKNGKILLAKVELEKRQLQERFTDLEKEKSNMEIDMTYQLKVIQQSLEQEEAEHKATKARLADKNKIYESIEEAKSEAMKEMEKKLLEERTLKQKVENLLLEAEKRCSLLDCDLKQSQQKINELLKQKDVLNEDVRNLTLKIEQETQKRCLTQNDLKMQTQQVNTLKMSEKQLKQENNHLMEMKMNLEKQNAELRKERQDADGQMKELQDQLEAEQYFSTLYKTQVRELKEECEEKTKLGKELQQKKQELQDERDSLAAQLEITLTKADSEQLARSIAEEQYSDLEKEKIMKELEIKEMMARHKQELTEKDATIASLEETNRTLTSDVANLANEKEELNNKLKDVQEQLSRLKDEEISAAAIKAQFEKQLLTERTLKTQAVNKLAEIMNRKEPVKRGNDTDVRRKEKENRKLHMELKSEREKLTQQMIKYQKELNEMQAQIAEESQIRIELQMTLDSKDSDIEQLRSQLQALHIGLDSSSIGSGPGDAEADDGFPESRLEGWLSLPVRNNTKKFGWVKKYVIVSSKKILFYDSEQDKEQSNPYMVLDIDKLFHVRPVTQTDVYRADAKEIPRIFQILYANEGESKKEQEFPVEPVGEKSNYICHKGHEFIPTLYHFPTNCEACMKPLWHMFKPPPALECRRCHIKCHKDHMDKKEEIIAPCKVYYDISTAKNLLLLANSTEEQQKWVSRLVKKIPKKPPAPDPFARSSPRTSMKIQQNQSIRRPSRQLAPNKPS
Rho-associated protein kinase 1, sequence (Q13464 whole entry): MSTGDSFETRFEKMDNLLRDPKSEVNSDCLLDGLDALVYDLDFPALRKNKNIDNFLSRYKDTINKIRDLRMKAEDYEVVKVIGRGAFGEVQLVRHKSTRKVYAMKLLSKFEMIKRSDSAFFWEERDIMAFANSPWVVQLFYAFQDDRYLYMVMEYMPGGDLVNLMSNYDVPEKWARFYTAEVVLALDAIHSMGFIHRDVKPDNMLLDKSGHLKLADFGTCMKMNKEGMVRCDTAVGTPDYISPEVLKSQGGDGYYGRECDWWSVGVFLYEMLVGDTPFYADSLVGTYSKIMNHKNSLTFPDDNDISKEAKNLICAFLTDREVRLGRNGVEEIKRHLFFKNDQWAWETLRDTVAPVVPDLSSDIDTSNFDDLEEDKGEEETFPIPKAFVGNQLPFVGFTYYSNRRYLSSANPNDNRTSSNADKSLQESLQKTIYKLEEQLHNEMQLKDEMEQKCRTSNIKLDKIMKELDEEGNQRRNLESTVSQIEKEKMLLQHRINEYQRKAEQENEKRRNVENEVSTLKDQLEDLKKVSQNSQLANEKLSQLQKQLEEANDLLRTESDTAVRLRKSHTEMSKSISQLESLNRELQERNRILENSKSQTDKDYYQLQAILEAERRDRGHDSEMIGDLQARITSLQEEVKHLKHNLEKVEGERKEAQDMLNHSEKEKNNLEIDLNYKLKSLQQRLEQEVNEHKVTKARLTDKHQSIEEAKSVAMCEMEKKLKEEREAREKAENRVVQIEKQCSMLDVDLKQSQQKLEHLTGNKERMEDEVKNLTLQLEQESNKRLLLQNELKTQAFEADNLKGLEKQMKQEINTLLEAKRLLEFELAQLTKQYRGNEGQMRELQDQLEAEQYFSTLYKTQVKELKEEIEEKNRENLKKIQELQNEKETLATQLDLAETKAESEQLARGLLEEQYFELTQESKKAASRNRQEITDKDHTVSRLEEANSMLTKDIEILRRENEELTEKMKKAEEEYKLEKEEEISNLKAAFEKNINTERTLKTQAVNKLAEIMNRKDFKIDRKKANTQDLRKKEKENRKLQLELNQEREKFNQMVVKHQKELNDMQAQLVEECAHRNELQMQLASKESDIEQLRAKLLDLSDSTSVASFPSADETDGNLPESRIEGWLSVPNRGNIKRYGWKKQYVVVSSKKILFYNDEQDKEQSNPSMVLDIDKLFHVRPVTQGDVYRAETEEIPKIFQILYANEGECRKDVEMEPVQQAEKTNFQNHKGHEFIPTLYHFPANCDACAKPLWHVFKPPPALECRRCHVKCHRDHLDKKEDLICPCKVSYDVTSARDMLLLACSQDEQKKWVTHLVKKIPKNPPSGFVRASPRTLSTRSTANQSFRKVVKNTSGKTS

Broadly, the IC50 is the concentration that gives 50% inhibition. The low end stands for greater potency, the high end for weaker potency. Turning to `CC(C)(C)OC(=O)N1CCc2sc(-c3ncc(F)c(Nc4ccc5c(=O)[nH]ccc5c4)n3)cc2C1` [US12398118, Compound C28], the IC50 in assay [1] is more than 10000 nM; in assay [2], 6 nM.

Take `O=C(OC1CCC(F)(F)CC1)N1CCc2cc(-c3ncc(F)c(Nc4ccc5c(=O)[nH]ccc5c4)n3)ccc2C1` [US12398118, Compound C35]: the IC50 in assay [1] was more than 10000 nM; in assay [2] it was 93 nM.

For the molecule `CC(OC(=O)N1CCc2sc(-c3ncc(F)c(Nc4ccc5c(c4)CCNC5=O)n3)cc2C1)C(F)(F)F` (stereo not drawn) [US12398118, Compound C43], in assay [2], the IC50 came out at 71 nM.

Regarding `CC(C)(C)OC(=O)N1CCc2sc(-c3ncc(F)c(Nc4ccc5c(N)nccc5c4)n3)cc2C1` [US12398118, Compound C45], the figures for the IC50 in assay [1] and in assay [2] were more than 10000 nM and 491 nM, respectively.

Regarding `CC(C)(C)CC(=O)N1CCc2sc(-c3ncc(F)c(Nc4ccc5c(=O)[nH]ccc5c4)n3)cc2C1` [US12398118, Compound C52], the IC50 in assay [1] was more than 10000 nM; in assay [2] it was 28 nM.

As for `O=C(OCC(F)(F)F)N1Cc2ccc(-c3ncc(F)c(Nc4ccc5c(=O)[nH]ccc5c4)n3)cc2C1` [US12398118, Compound C72], the IC50 in assay [1] was more than 10000 nM; in assay [2], 24 nM.

For the molecule `O=C1NCCc2cc(Nc3nc(-c4cc5c(s4)CCN(C(=O)OCC(F)(F)F)C5)ncc3F)ccc21` [US12398118, Compound C75], the IC50 is more than 10000 nM in assay [1] and 37 nM in assay [2].
